Laboratory results from ChEMBL document CHEMBL1151150, “Brominated Metabolites from the Sponge Aplysina (verongia) thiona” (J Nat Prod, 1990).
Active and inactive are the calls of the source.

Experiments:
Type in all cases: functional, organism-based
[1] = tested on: Shigella sonnei; assay: Antimicrobial activity against Shigella sonnei
[2] = tested on: Staphylococcus aureus; assay: Antimicrobial activity against Staphylococcus aureus
[3] = tested on: Streptococcus pyogenes; assay: Antimicrobial activity against Streptococcus pyogenes
[4] = tested on: Salmonella enterica subsp. enterica serovar Typhi str. CT18; assay: Antimicrobial activity against Salmonella typhi

Measured: Activity

COc1c(Br)cc2c(c1Br)OC(=O)C2=C(C)C
inactive: all assays above

CCCCO[C@]1(OC)C(Br)=C[C@@](O)(CC(N)=O)C=C1Br
inactive: all assays above

COc1c(Br)cc2c(c1Br)OC(=N)C2
inactive: all assays above

CCCCCO[C@]1(OC)C(Br)=C[C@@](O)(CC(N)=O)C=C1Br
inactive: all assays above
